Experimental data as given in US5756505A, “N-acylpiperazine derivative, antibacterial drug and anti-ulcer drug” (Shiseido Co., Ltd., priority 1995, dated 1998).
≈ marks a conversion by molar mass, not a printed value. Read-outs that look alike come from different tables or passages of the source.

What was measured:
[1] = system: isolated gastric fundic gland; test: CAP: Acid Secretion Inhibition Test In Vitro ([14C]-aminopyrine uptake); assay type: cell-based, rabbit (male Japanese White); settings: for inhibition at 10 µM: Oryctolagus cuniculus, read-out: CAP: acid secretion inhibitory rate
Method: CAP: Acid Secretion Inhibition Test In Vitro
The acid secretion inhibitory activity in a cell level is studied. It can also be used for studying the mechanism of the effect. […]
ii-a) Preparation of isolated gastric fundus gland suspension
First, an isolated gastric fundic gland sample was prepared. Namely, a male Japanese White rabbit (2.5 to 3 kg) was anesthetized to death with Nembutal™ and then the abdomen was incised. Immediately thereafter, the stomach was removed and, after its pyloric and cardiac antrum were severed, incised along its greater curvature into two sheets. The gastric contents adhering to the mucosal surface was washed out with ice-cooled PBS (-) and then carefully washed therein. The gastric wall was spread on a cork board with its mucosal surface facing up and the feed and mucus thereon were completely removed with sterile gauze. The mucosa was separated therefrom by a spatula and then collected in ice-cooled PBS (-). After being washed twice with PBS (-), the mucosa was minced into 2-3mm^3 pieces by scissors. These pieces were further washed twice with a nutrient solution. The nutrient solution comprises 132.4 mM of NaCl, 5.4 mM of KCl, 5 mM of Na2 HPO4 ·12H2 O, 1 mM of NaH2 PO4 ·2H2 O, 1.2 mM of MgSO4, 1 mM of CaCl2, 25 mM of HEPES, 2mg/ml of glucose, and 1 mg/ml of BSA. Into 70 ml of the nutrient solution containing 1 mg/ml of collagenase, minced mucosal pieces were dispersed and intensely stirred in a conical flask with a stirrer at 37° C. for 40 to 60 minutes. During this period, 100% O2 was sprayed on the nutrient solution surface and the pH was appropriately measured such that it was immediately adjusted to pH 7.4, when the value was therebelow, with a base. The nutrient solution was added to the reaction solution so as to attain the total amount of about 200 ml. After being filtered through a mesh, the suspension was divisionally introduced into 50 ml centrifuge tubes and left for 15 minutes such that gastric fundic gland was deposited. The supernatant was repeatedly removed by an aspirator, dispersed in the nutrient solution, and then left such that the gastric fundic gland was washed three times. At this time, without using a pipette, the suspension was alternately introduced into two centrifuge tubes so as to effect dispersion. The number of cells was counted under microscope and adjusted to 1.6×10^6 cells/ml. […]
ii-b) [^14 C]-aminopyrine uptake test
Then, [^14 C]-aminopyrine uptake test was performed. After an Eppendorf tube was weighed, 10 μl (final concentration: 10^-5 M) of histamine dissolved in the above-mentioned nutrient solution, 10 μl (final concentration: 10^-5 M) of the test compound dissolved in DMSO, and 10 μl (final concentration: 0.05 μCi/ml) of [^14 C]-aminopyrine diluted with the nutrient solution were introduced therein and then 970 μl of the isolated gastric fundic gland suspension prepared above were added thereto. Subsequently, this mixture was shaken at 37° C. for 40 minutes at 125 cycles/minute. After being centrifuged for 30 minutes 200 μl of its supernatant was collected into a mini-vial, while the rest was removed by an aspirator. The gland pellet was completely dried as the tube with its lid being opened was kept for one night in a drying oven at 80° C. and then the lid was closed and the weight was determined at room temperature. Then 100 μl of 1N KOH were added thereto and the tube with its lid being closed was treated at 60° C. for 1 to 2 hours so as to dissolve the pellet. Then, the contents thereof were transferred to a mini-vial. Into the mini-vial containing the supernatant or gland pellet, 4 ml of Atomlite™ were added and then the radioactivity was measured by a liquid scintillation counter. Here, after the radioactivity of the gland pellet was corrected by using a sample in which 20 mM of NaSCN were added so as to cancel the hydrogen ion concentration gradient, the integration ratio of aminopyrine specifically trapped by the gland pellet was calculated. […]

[2] = system: gastric mucosa; test: PD: Gastric Mucosal Integrity Test; assay type: in vivo, rat (male Crj:SD); settings: rat, 100 mg/kg into ex vivo chamber, 60 minutes
Method: PD: Gastric Mucosal Integrity Test
In this case, since the sample compound has a necrotizing effect, it is inappropriate as an anti-ulcer medicament.
Therefore, the gastric mucosal potential difference (PD), which reflects the integrity of the gastric mucosa, is measured so as to confirm that the sample compound has no damasing effect on gastric mucosa, which is toxicity at gastric mucosal level.
Male Crj:SD rats (7 to 8-week-old) was fasted overnight, but allowed free access to water, and then, under urethane anesthesia (1.25 g/kg, i.p.), fixed to a cork board on its back. The abdomen of each rat was incised, and a small incision was made in the forestomach. Then, the inside of the stomach was washed with physiological saline heated at 37° C. From the forestomach, along the greater curvature thereof, the stomach was incised without damaging blood vessels. After the height of the cork board was adjusted on a jack, the stomach was mounted on ex vivo chamber. The area of the gastric mucosa exposed to the inside of this chamber was 2.5 cm^2. The inside of the chamber was perfused with physiological saline warmed at 37° C. by micro tube pump. By using an agar bridge containing 3M KCl, the potential difference between the chamber and the abdominal cavity was measured by a PD meter. Here, the rectal temperature was measured to control the body temperature during the experiment. After the PD was sufficiently stabilized, the perfusate was stopped and then 100 mg/10 ml/kg of the sample compound dissolved or suspended in an aqueous solution of 0.5% sodium carboxymethyl cellulose or 0.05% Tween 80 were administered into the chamber, while PD was recorded for 60 minutes. To a control, the vehicle was administered.
The change in PD during 60 minutes after the administration of 100 mg/kg of the sample compound was collectively studied and, with reference to the positive control, classified into 5 levels as follows:
5: Same as the control with no recognizable damage at all.
3: Though a weak decrease in PD and a possibility of a weak mucosal damage is recognized, there is no substantial problem.
2: Medium degree of decrease in PD is found and a mucosal damage is recognized.
1: Heavy degree of decrease in PD is found and a remarkable mucosal damage is recognized.

[3] = system: Helicobacter pyroli; test: AHP: Antibacterial Activity Test Against Helicobacter pyroli; assay type: cell-based, Helicobacter pyroli NCTC 11637; settings: Helicobacter, NCTC11637, 168 h; H. pyroli NCTC 11637, agar dilution, 7 days; read-out: AHP: minimum inhibitory concentration (MIC)
Method: AHP: Antibacterial […] Against Helicobacter pyroli i)Meaning The minimum inhibitory concentration (MIC) against Helicobacter pyroli (microaerophilic gram-negative bacterium which is supposed to deeply involve in pathogenesis, relapse, and recrudescence of ulcer, referred to as "HP" in the following) is measured so as to find out compounds which have antimicrobial activity against Helicobacter pyroli. ii)Method MICs were determined by the agar dilution method. […] Grown colonies were transfered to the same plate and cultured for 3 days under the same condition. […] A 1,000 μg/ml solution of the sample compound containing DMSO not more than 25% was […] diluted 2-fold in sterile purified water. 100 μl volume from each dilution was mixed thoroughly with 900 μl of brucella agar supplemented with 5% horse blood and solidified in a 24 well micro plate. 10 μl of the bacterial suspension (about 10^3 cfu) was inoculated on this plate and cultured for 7 days under the same condition as that of preculture.

[4] = final concentration 10^-5 M, histamine 10^-5 M, rabbit gastric fundic gland

PD: change in gastric mucosal potential difference, level [2] | MIC [3] | SMILES | inhibition at 10 µM [1, 4] | CAP: acid secretion inhibitory rate [1, 4] | inhibition at 10 µM [1]
2 |  | CC(C)CN1CCN(C(=O)c2ccc(OCc3ccc(F)cc3)cc2)CC1.Cl [Example 2, 1-[4-(4-fluorobenzyloxy)benzoyl]-4-isobutylpiperazine hydrochloride] | 99% |  | 
 | 25 mg/L | C=C(C)Cc1cc(C(=O)N2CCN(CC(C)C)CC2)ccc1OCc1ccc(F)cc1.Cl [Example 4, 1-[4-(4-fluorobenzyloxy)-3-methallylbenzoyl]-4-isobutylpiperazine hydrochloride] | 94% |  | 
 | 12.5 mg/L (≈ 33.7 µM) | CC(C)CN1CCN(C(=O)c2ccc(OCc3ccc(F)cc3)cc2)CC1 [Example 5, 1-[4-(4-fluorobenzyloxy)benzoyl]-4-isobutylpiperazine] |  | 96% | 
 | < 3.13 mg/L | CC(C)Cc1cc(C(=O)N2CCN(C(=O)C(C)C)CC2)ccc1OCc1ccc(F)cc1 [Example 6, 1-[4-(4-fluorobenzyloxy)-3-isobutylbenzoyl]-4-isobutyrylpiperazine] | 57% |  | 
2 |  | CC(C)CN1CCN(C(=O)c2ccc(OCc3ccc(F)cc3)c([N+](=O)[O-])c2)CC1.Cl [Example 8, 1-[4-(4-fluorobenzyloxy)-3-nitrobenzoyl]-4-isobutylpiperazine hydrochloride] | 100% |  | 
2 |  | CC(C)Cc1cc(C(=O)N2CCN(CCO)CC2)ccc1OCc1ccc(F)cc1 [Example 9, 1-[4-(4-fluorobenzyloxy)-3-isobutylbenzoyl]-4-(2-hydroxyethyl)piperazine] | 100% |  | 
2 | 12.5 mg/L | CC(C)Cc1cc(C(=O)N2CCN(CC(C)C)CC2)ccc1OCc1ccc([N+](=O)[O-])cc1.Cl [Example 13, 1-isobutyl-4-[3-isobutyl-4-(4-nitrobenzyloxy)benzoyl]piperazine hydrochloride] |  |  | 
 | 25 mg/L (≈ 57 µM) | COc1ccc(COc2ccc(C(=O)N3CCN(CC(C)C)CC3)cc2CC(C)C)cc1 [Example 14, 1-isobutyl-4-[3-isobutyl-4-(4-methoxybenzyloxy)benzoyl]piperazine] | 100% |  | 
2 |  | CC(C)Cc1cc(C(=O)N2CCN(CC(C)C)CC2)ccc1OCc1ccccc1F.Cl [Example 19, 1-[4-(2-fluorobenzyloxy)-3-isobutylbenzoyl]-4-isobutylpiperazine hydrochloride] |  | 95% | 
 | 25 mg/L | CC(C)Cc1cc(C(=O)N2CCN(CC(C)C)CC2)ccc1OCc1ccc(F)c(F)c1.Cl [Example 23, 1-[4-(3,4-difluorobenzyloxy)-3-isobutylbenzoyl]-4-isobutylpiperazine hydrochloride] | 99% |  | 
 | 12.5 mg/L | CC(C)Cc1cc(C(=O)N2CCN(CC(C)C)CC2)ccc1OCc1ccc(F)cc1.O=C(O)C(=O)O [Example 25, 1-[4-(4-fluorobenzyloxy)-3-isobutylbenzoyl]-4-isobutylpiperazine oxalate] |  | 95% | 

Second part, the compound before the results:

SMILES | PD: change in gastric mucosal potential difference, level [2] | MIC [3] | inhibition at 10 µM [1, 4] | CAP: acid secretion inhibitory rate [1, 4] | inhibition at 10 µM [1]
CC(C)CN1CCN(C(=O)c2ccc(OCc3ccccc3)cc2)CC1 [Example 3, 1-(4-benzyloxybenzoyl)-4-isobutylpiperazine] | 5 |  | 85% |  | 
Cc1cccc(COc2ccc(C(=O)N3CCN(CC(C)C)CC3)cc2CC(C)C)c1F.Cl [Example 12, 1-[4-(2-fluoro-3-methylbenzyloxy)-3-isobutylbenzoyl]-4-isobutylpiperazine hydrochloride] | 2 |  | 100% |  | 
CC(C)Cc1cc(CC(=O)N2CCN(CC(C)C)CC2)ccc1OCc1ccccc1 [Example 15, 1-(4-benzyloxy-3-isobutylphenylacetyl)-4-isobutylpiperazine] |  |  |  |  | 99%
CC(C)Cc1cc(C(=O)N2CCN(CC(C)C)CC2)ccc1OCc1ccccc1 [Example 16, 1-(4-benzyloxy-3-isobutylbenzoyl)-4-isobutylpiperazine] | 5 | 50 mg/L (≈ 122 µM) | 98% |  | 
CC(C)Cc1cc(C(=O)N2CCN(CC(C)C)CC2)ccc1OCc1ccc(Cl)cc1 [Example 17, 1-[4-(4-chlorobenzyloxy)-3-isobutylbenzoyl]-4-isobutylpiperazine] | 4 | 12.5 mg/L (≈ 28.2 µM) | 99% |  | 
CC(C)Cc1cc(CN2CCN(CC(C)C)CC2)ccc1OCc1ccc(F)cc1.Cl.Cl [Example 20, 1-[4-(4-fluorobenzyloxy)-3-isobutylbenzyl]-4-isobutylpiperazine dihydrochloride] | 2 |  | 100% |  | 
CC(C)Cc1cc(C(=O)N2CCN(CC(C)C)CC2)ccc1OCc1ccc(F)c(F)c1 [Example 26, 1-[4-(3,4-difluorobenzyloxy)-3-isobutylbenzoyl]-4-isobutylpiperazine] |  | 12.5 mg/L (≈ 28.1 µM) |  | 99% | 
CC(C)Cc1cc(C(=O)N2CCN(CC(C)C)CC2)ccc1OCc1ccc(F)cc1F [Example 27, 1-[4-(2,4-difluorobenzyloxy)-3-isobutylbenzoyl]-4-isobutylpiperazine] |  | 6.25 mg/L (≈ 14.1 µM) |  | 99% | 
